# Test results published in article PMC7243081 (Slas Discovery, 2019).
# Read-outs that look alike come from different tables or passages of the source.
# Legend:
# [1] = biological target: T1, α1, β2, and γ2s subunits of the rat GABAA receptors (HEK-GABA cells) (Rattus norvegicus, UniProt P18508+P62813+P63138); experiment: QP-DHM blind agonist screen; type: cell-based
# [2] = biological target: GABAA receptor; conditions: cited from earlier work; for IC50: read-out: reported IC50
# [3] = biological target: T1, α1, β2, and γ2s subunits of the rat GABAA receptors (HEK-GABA cells); experiment: Whole-cell electrophysiology recording on HEK-GABA cells; type: cell-based; conditions: electrophysiology vs QP-DHM
# [4] = test system: human α1β2γ2L GABAA receptor subunits in L(tk−) cells; conditions: L(tk−) cells stably transfected with human α1β2γ2L; cited from earlier work
# [5] = test system: Wild-type HEK cells; conditions: patch clamp; cited from earlier work
# [6] = biological target: GABAA receptor (α1, β2, and γ2s subunits, HEK-GABA) (Rattus norvegicus, UniProt P18508+P62813+P63138); type: cell-based
# GABAA receptor (α1, β2, and γ2s subunits, HEK-GABA), sequence (P62813 28-455): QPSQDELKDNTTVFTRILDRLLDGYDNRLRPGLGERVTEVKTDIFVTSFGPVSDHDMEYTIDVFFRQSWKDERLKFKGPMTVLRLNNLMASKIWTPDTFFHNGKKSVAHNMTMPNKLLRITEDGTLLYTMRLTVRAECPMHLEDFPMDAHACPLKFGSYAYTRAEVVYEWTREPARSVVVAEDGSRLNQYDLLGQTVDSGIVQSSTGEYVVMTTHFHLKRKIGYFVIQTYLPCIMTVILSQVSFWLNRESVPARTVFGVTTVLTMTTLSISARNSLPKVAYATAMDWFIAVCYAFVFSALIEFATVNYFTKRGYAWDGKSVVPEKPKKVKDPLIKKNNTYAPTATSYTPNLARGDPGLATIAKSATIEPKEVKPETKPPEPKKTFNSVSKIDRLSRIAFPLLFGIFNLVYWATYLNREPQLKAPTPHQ
# GABAA receptor (α1, β2, and γ2s subunits, HEK-GABA), sequence (P63138 25-474 limits assumed): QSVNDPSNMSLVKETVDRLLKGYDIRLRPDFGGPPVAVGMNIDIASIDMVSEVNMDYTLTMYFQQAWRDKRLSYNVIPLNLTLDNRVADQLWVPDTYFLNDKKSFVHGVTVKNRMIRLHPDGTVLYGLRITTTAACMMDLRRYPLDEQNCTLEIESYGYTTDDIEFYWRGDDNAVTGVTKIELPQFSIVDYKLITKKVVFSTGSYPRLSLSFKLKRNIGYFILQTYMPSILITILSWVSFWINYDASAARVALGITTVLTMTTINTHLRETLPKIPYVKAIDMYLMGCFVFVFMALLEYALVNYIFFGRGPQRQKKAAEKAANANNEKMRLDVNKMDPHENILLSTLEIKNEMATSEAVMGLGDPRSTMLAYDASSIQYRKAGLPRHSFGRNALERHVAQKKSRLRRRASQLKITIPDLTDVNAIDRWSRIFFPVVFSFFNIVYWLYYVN
# GABAA receptor (α1, β2, and γ2s subunits, HEK-GABA), sequence (P18508 39-466): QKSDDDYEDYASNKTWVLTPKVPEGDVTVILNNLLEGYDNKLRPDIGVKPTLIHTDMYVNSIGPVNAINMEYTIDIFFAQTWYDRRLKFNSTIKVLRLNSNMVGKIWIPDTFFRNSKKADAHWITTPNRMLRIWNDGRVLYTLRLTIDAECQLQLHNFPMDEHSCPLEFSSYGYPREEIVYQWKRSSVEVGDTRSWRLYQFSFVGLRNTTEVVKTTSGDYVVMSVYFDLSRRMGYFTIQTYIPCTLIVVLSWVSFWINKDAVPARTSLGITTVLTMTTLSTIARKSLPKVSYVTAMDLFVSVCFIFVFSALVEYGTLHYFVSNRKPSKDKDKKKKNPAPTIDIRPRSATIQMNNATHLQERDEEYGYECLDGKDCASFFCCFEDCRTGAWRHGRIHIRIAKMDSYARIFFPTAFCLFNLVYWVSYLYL
# [7] = biological target: T1, α1, β2, and γ2s subunits of the rat GABAA receptors (HEK-GABA cells); experiment: QP-DHM modulator mode; type: cell-based; conditions: maximum concentration of compound, with GABA at EC30, Fig. 3D
# [8] = test system: α1β2γ2 expressed in Xenopus oocytes; conditions: read-out: EC50 as modulator; cited from earlier work
# [9] = Table 1, dose-response curves of validated hits
# T1 sequence (P62813 28-455): as the sequence (P62813 28-455) above
# T1 sequence (P63138 25-474 limits assumed): as the sequence (P63138 25-474 limits assumed) above
# T1 sequence (P18508 39-466): as the sequence (P18508 39-466) above
molecule,measurement,setting,value
CC(=O)OC1CCC2(C)C(CCC3C4CCC(C(C)=O)C4(C)CC(=O)C32)C1 (stereo not drawn),result in blind agonist screen,[1]; natural products collection,negative
CN1CCc2cc3c(cc2[C@H]1[C@@H]1OC(=O)c2c1ccc1c2OCO1)OCO3 [(+)-Bicuculline],IC50,[2]; in the presence of 3 μM GABA,900 nM
same,IC50,[2]; in the presence of 10 μM GABA,530 nM
CC[C@H](C)[C@H]1O[C@]2(C=C[C@@H]1C)C[C@@H]1C[C@@H](C/C=C(\C)[C@@H](O[C@H]3C[C@H](OC)[C@@H](O[C@H]4C[C@H](OC)[C@@H](O)[C@H](C)O4)[C@H](C)O3)[C@@H](C)/C=C/C=C3\CO[C@@H]4[C@H](O)C(C)=C[C@@H](C(=O)O1)[C@]34O)O2 [Avermectin B1a],EC50 with electrophysiology relative to QP-DHM (fold higher),[3],~ 10 ×
same,EC50,[1],6900 nM
same,Amplitude (%),[1]; [9],94%
same,Hill Coefficient,[1]; [9],6.3
same,Amplitude (%),"[1]; Table 2, avermectin family",94%
same,Hill Coefficient,"[1]; Table 2, avermectin family",6.3
COc1cc2c(c(OC)c1OC)-c1ccc(OC)c(=O)cc1[C@@H](NC(C)=O)CC2 [Colchicine],effect on GABA currents,[4],significantly inhibits GABA currents
NCCCC(=O)O [GABA],electrophysiological response of wild-type HEK cells,[5],no electrophysiological response
COc1ccc(-c2ccc(=N)n(CCCC(=O)O)n2)cc1 [Gabazine],IC50,[2]; in the presence of 3 μM GABA,~200 nM
NCc1cc(=O)[nH]o1 [Muscimol],EC50,[1],200 nM
same,Amplitude (%),[1]; [9],100%
same,Hill Coefficient,[1]; [9],1.9
"CC[C@]1(O)C[C@@H]2CN(CCc3c([nH]c4ccccc34)[C@@](C(=O)OC)(c3cc4c(cc3OC)N(C)[C@H]3[C@@](O)(C(N)=O)[C@H](O)[C@]5(CC)C=CCN6CC[C@]43[C@@H]65)C2)C1 [STOCK1N-75293, Vindesine]",outcome of hits validation (activity and specificity for the GABAA receptor),[6],marginal effect
CCN(C(C)=O)c1cccc(-c2ccnc3c(C#N)cnn23)c1 [Zaleplon],effect of GABA increased to % of the maximum (GABA at 10 µM),[7],41%
same,EC50,[8],170 nM
Ivermectin,EC50 with electrophysiology relative to QP-DHM (fold higher),[3],~ 10 ×
same,rise time relative to GABA (times longer),[2],about 500 times
Picrotoxin,IC50,[2]; in the presence of 10 μM GABA,3100 nM
